Data as given in patent US10760110B2, “Antibiotic testing and screening system” (priority 2017, dated 2020).

Tested on: A. baumannii KW1 strains with β-lactamase plasmids
Experiment: Etest MIC of β-lactams, extended-spectrum β-lactamase, AmpC β-lactamase or carbapenemase (Table 18)
Format: cell-based, Acinetobacter baumannii
Protocol: DNA fragments of the resistance genes along with their flanking regions were amplified from clinical plasmids via PCR with specific primer pairs. The resulting PCR fragments were digested and then cloned into the plasmid pYMAb5 or pYMAb5Tc. The resulting plasmids were then transformed into A. baumannii KW1 via electroporation.
The MICs of antibiotics were determined using the Etest (Biodisk AB, Sweden) according to the manufacturer's instructions. The MICs from the Etest, which fall between standard two-fold dilutions, were rounded up to the next highest two-fold value. The MICs of ceftazidime and cefotaxime against K. pneumoniae NVT1001 harbouring the pACYC177 plasmid with blaOXA-48 were further determined using a broth microdilution test according to the recommendations of the CLSI,^25 and the results were interpreted according to the breakpoints established by the CLSI in 2017.^25 Meanwhile, due to the lack of CLSI breakpoints in 2016 and 2017, the results for cephalothin were interpreted according to the breakpoints established by the CLSI in 2015,^26 and the results for moxifloxacin were interpreted according to the breakpoints established by the EUCAST in 2017.^27

## C[C@H]1[C@H](NC(=O)/C(=N\OC(C)(C)C(=O)O)c2csc(N)n2)C(=O)N1S(=O)(=O)O [ATM]
KW1, no supplemental plasmid
  MIC: 16 µg/mL
KW1 with ADC-30 on pYMAb5
  MIC: 64 µg/mL
KW1 with CTX-M-15 on pYMAb5
  MIC: >256 µg/mL
KW1 with IMP-1 on pYMAb5
  MIC: 16 µg/mL
KW1 with NDM-1 on pYMAb5
  MIC: 12 µg/mL
KW1 with OXA-23 on pYMAb5
  MIC: 16 µg/mL
KW1 with OXA-58 on pYMAb5
  MIC: 16 µg/mL
KW1 with OXA-66 on pYMAb5
  MIC: 12 µg/mL
KW1 with OXA-72 on pYMAb5
  MIC: 16 µg/mL
KW1 with VEB-3 on pYMAb5
  MIC: >256 µg/mL
KW1 with VIM-1 on pYMAb5
  MIC: 12 µg/mL
KW1 with shuttle vector pYMAb5
  MIC: 12 µg/mL

## C[C@@H](O)[C@H]1C(=O)N2C(C(=O)O)=C(S[C@@H]3CN[C@H](CNS(N)(=O)=O)C3)[C@H](C)[C@H]12 [DOR]
KW1, no supplemental plasmid
  MIC: 0.38 µg/mL
KW1 with ADC-30 on pYMAb5
  MIC: 4 µg/mL
KW1 with CTX-M-15 on pYMAb5
  MIC: 1.5 µg/mL
KW1 with IMP-1 on pYMAb5
  MIC: 16 µg/mL
KW1 with NDM-1 on pYMAb5
  MIC: >32 µg/mL
KW1 with OXA-23 on pYMAb5
  MIC: >32 µg/mL
KW1 with OXA-58 on pYMAb5
  MIC: 6 µg/mL
KW1 with OXA-66 on pYMAb5
  MIC: 8 µg/mL
KW1 with OXA-72 on pYMAb5
  MIC: >32 µg/mL
KW1 with VEB-3 on pYMAb5
  MIC: 0.38 µg/mL
KW1 with VIM-1 on pYMAb5
  MIC: >32 µg/mL
KW1 with shuttle vector pYMAb5
  MIC: 0.38 µg/mL

## C[C@@H](O)[C@H]1C(=O)N2C(C(=O)O)=C(S[C@@H]3CN[C@H](C(=O)Nc4cccc(C(=O)O)c4)C3)[C@H](C)[C@H]12 [ETP]
KW1, no supplemental plasmid
  MIC: 3 µg/mL
KW1 with ADC-30 on pYMAb5
  MIC: >32 µg/mL
KW1 with CTX-M-15 on pYMAb5
  MIC: 12 µg/mL
KW1 with IMP-1 on pYMAb5
  MIC: >32 µg/mL
KW1 with NDM-1 on pYMAb5
  MIC: >32 µg/mL
KW1 with OXA-23 on pYMAb5
  MIC: >32 µg/mL
KW1 with OXA-58 on pYMAb5
  MIC: >32 µg/mL
KW1 with OXA-66 on pYMAb5
  MIC: >32 µg/mL
KW1 with OXA-72 on pYMAb5
  MIC: >32 µg/mL
KW1 with VEB-3 on pYMAb5
  MIC: 3 µg/mL
KW1 with VIM-1 on pYMAb5
  MIC: >32 µg/mL
KW1 with shuttle vector pYMAb5
  MIC: 3 µg/mL
